pIC50: −log10 of the molar value. Active and inactive are the calls of the source. The calls are words filed in the database; no cut-off is given here.

Assay [1] has as its system U-87 MG. Briefly: Antitumor activity against human U87 cells assessed as reduction in cell viability incubated for 48 hrs by CCK-8 assay. The class given is functional, cell-based, U-87MG ATCC. On the technique in general: Tetrazolium dyes change colour on reduction, which living cells bring about.
The test system of assay [2] is U-87 MG. The experiment in a line: Antitumor activity against human U87 cells assessed as residual cell viability at 100 uM incubated for 48 hrs by CCK-8 assay relative to control. The class given is functional, U-87MG ATCC.
The subject of assay [3] is U-87 MG. The experiment in a line: Cytotoxicity against human U87 cells assessed as reduction in cell count at 12.5 to 200 uM incubated for 48 hrs by crystal violet staining based microscopic analysis. Conditions: U-87MG ATCC, dose 12.5-200 µM. In kind it is functional.
Assay [4] deals with U-87 MG. The experiment in a line: Anti-tumor activity against human U87 cells assessed as reduction in cell proliferation by measuring reduction in green fluorescence intensity at 50 to 100 uM incubated for 48 hrs by Calcein AM dye based fluorescence microscopy. In kind it is functional. The note with it: U-87MG ATCC, dose 50-100 µM.

`Oc1cc(O)cc(/C=C/c2ccccc2)c1` [PINOSYLVIN]: in the assay on U-87 MG [1], the pIC50 (commonly the IC50 on a negative log10 scale, so that one unit is a factor of ten) is 4.05. Moreover, the Activity result was “Dose-Dependent Effect” in the assay with U-87 MG [1] (U-87MG ATCC) and 90% in the assay on U-87 MG [2]. Further, the outcome in the assay with U-87 MG [3] and in the assay on U-87 MG [4] was Active.
With `Cn1nnc2c(C(N)=O)ncn2c1=O` [TEMOZOLOMIDE], the Activity in the assay on U-87 MG [2] came out at 47%.

The values are drawn from ChEMBL document CHEMBL5614369, “Design, synthesis and biological evaluation of Nrf2 modulators for the treatment of glioblastoma multiforme” (Bioorg Med Chem, 2024).
